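Interpolation was linear, between the two tested concentrations surrounding the appropriate level; five concentrations were tested over 48 hours in 96-well plates. GI50 = concentration required for 50% inhibition of growth.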 Active and inactive are the calls of the source. Cut-off read from the data, not from the text of the source: active = GI50 up to about 1.1 µM and inactive = higher.
Columns and labels:
Assay in all cases: NCI-60 cell line screen, 48 h
HOP-62 = tested on: HOP-62
Malme-3M = tested on: Malme-3M
RPMI-8226 = tested on: RPMI-8226
A549 = tested on: A549
CAKI-1 = tested on: CAKI-1
CCRF-CEM = tested on: CCRF-CEM
HCT-116 = tested on: HCT-116
K562 = tested on: K562
LOX IMVI = tested on: LOX IMVI
M14 = tested on: M14
NCI-H23 = tested on: NCI-H23
NCI-H522 = tested on: NCI-H522
SF-539 = tested on: SF-539
SK-MEL-5 = tested on: SK-MEL-5
SNB-19 = tested on: SNB-19
T47D = tested on: T47D
U-251 = tested on: U-251
UACC-257 = tested on: UACC-257
UACC-62 = tested on: UACC-62
UO-31 = tested on: UO-31
786-0 = tested on: 786-0
A498 = tested on: A498
ACHN = tested on: ACHN
COLO 205 = tested on: COLO 205
DU-145 = tested on: DU-145
EKVX = tested on: EKVX
HCC 2998 = tested on: HCC 2998
HCT-15 = tested on: HCT-15
HL-60 = tested on: HL-60
HOP-92 = tested on: HOP-92
HT-29 = tested on: HT-29
Hs-578T = tested on: Hs-578T
IGROV-1 = tested on: IGROV-1
KM12 = tested on: KM12
MCF7 = tested on: MCF7
MDA-MB-231 = tested on: MDA-MB-231
MDA-MB-435 = tested on: MDA-MB-435
MDA-N = tested on: MDA-N
MOLT-4 = tested on: MOLT-4
NCI-H226 = tested on: NCI-H226
NCI-H460 = tested on: NCI-H460
NCI/ADR-RES = tested on: NCI/ADR-RES
OVCAR-3 = tested on: OVCAR-3
OVCAR-4 = tested on: OVCAR-4
OVCAR-5 = tested on: OVCAR-5
OVCAR-8 = tested on: OVCAR-8
PC-3 = tested on: PC-3
RXF 393 = tested on: RXF 393
SF-268 = tested on: SF-268
SF-295 = tested on: SF-295
SK-MEL-28 = tested on: SK-MEL-28
SK-MEL-2 = tested on: SK-MEL-2
SK-OV-3 = tested on: SK-OV-3
SN12C = tested on: SN12C
SNB-75 = tested on: SNB-75
SR = tested on: SR
SW-620 = tested on: SW-620
TK-10 = tested on: TK-10

COc1ccc(Oc2nc3cc(N)cc(N)c3nc2-c2ccccc2)cc1
GI50 (HOP-62): 19.2 µM (inactive) | GI50 (Malme-3M): 55.1 µM (inactive) | GI50 (RPMI-8226): 10.5 µM (inactive)

CC[C@@]1(O)C(=O)OCc2c1cc1n(c2=O)Cc2c-1nc1ccccc1c2/C=N\c1ccc(N[C@@H]2c3cc4c(cc3[C@@H](c3cc(OC)c(O)c(OC)c3)[C@H]3C(=O)OC[C@@H]32)OCO4)cc1
GI50 (A549): 0.0292 µM (active) | GI50 (CAKI-1): < 0.01 µM (active) | GI50 (CCRF-CEM): < 0.01 µM (active) | GI50 (HCT-116): 0.0208 µM (active) | GI50 (HOP-62): < 0.01 µM (active) | GI50 (K562): 0.0505 µM (active) | GI50 (LOX IMVI): < 0.01 µM (active) | GI50 (M14): < 0.01 µM (active) | GI50 (NCI-H23): 0.0118 µM (active) | GI50 (NCI-H522): 0.0254 µM (active) | GI50 (RPMI-8226): 0.0396 µM (active) | GI50 (SF-539): < 0.01 µM (active) | GI50 (SK-MEL-5): 0.0288 µM (active) | GI50 (SNB-19): 0.0257 µM (active) | GI50 (T47D): < 0.01 µM (active) | GI50 (U-251): 0.0904 µM (active) | GI50 (UACC-257): 0.189 µM (active) | GI50 (UACC-62): < 0.01 µM (active) | GI50 (UO-31): 0.0213 µM (active)

CSC(Cc1ccc2c(c1)Sc1ccccc1O2)=[N+]1CCOCC1
GI50 (786-0): 88.9 µM (inactive) | GI50 (A498): 46.5 µM (inactive) | GI50 (A549): 63.8 µM (inactive) | GI50 (ACHN): 58.3 µM (inactive) | GI50 (CAKI-1): > 100 µM (inactive) | GI50 (COLO 205): > 100 µM (inactive) | GI50 (DU-145): > 100 µM (inactive) | GI50 (EKVX): 58.1 µM (inactive) | GI50 (HCC 2998): 91.8 µM (inactive) | GI50 (HCT-116): 41.4 µM (inactive) | GI50 (HCT-15): 43.5 µM | GI50 (HL-60): 37.9 µM (inactive) | GI50 (HOP-62): > 100 µM (inactive) | GI50 (HOP-92): 48.5 µM (inactive) | GI50 (HT-29): 43.9 µM (inactive) | GI50 (Hs-578T): 30.7 µM (inactive) | GI50 (IGROV-1): 48.6 µM (inactive) | GI50 (K562): 79.6 µM (inactive) | GI50 (KM12): 51.4 µM (inactive) | GI50 (LOX IMVI): 80.4 µM (inactive) | GI50 (M14): 72.9 µM (inactive) | GI50 (MCF7): 40.2 µM (inactive) | GI50 (MDA-MB-231): > 100 µM (inactive) | GI50 (MDA-MB-435): 33 µM (inactive) | GI50 (MDA-N): 54.5 µM (inactive) | GI50 (MOLT-4): 35.7 µM (inactive) | GI50 (Malme-3M): 26.4 µM (inactive) | GI50 (NCI-H226): 55.8 µM (inactive) | GI50 (NCI-H23): 40.7 µM (inactive) | GI50 (NCI-H460): 48.2 µM (inactive) | GI50 (NCI/ADR-RES): 56.8 µM (inactive) | GI50 (OVCAR-3): 52.6 µM (inactive) | GI50 (OVCAR-4): > 100 µM (inactive) | GI50 (OVCAR-5): > 100 µM (inactive) | GI50 (OVCAR-8): 52.6 µM (inactive) | GI50 (PC-3): 44.7 µM (inactive) | GI50 (RPMI-8226): 49.8 µM (inactive) | GI50 (RXF 393): 37.6 µM (inactive) | GI50 (SF-268): 61.2 µM (inactive) | GI50 (SF-295): 44.5 µM (inactive) | GI50 (SF-539): 74.6 µM (inactive) | GI50 (SK-MEL-28): 80.7 µM (inactive) | GI50 (SK-MEL-2): > 100 µM (inactive) | GI50 (SK-OV-3): > 100 µM (inactive) | GI50 (SN12C): > 100 µM (inactive) | GI50 (SNB-19): 83.9 µM (inactive) | GI50 (SNB-75): 32.4 µM (inactive) | GI50 (SR): 3.37 µM (inactive) | GI50 (SW-620): > 100 µM (inactive) | GI50 (T47D): 65.5 µM (inactive) | GI50 (TK-10): > 100 µM (inactive) | GI50 (U-251): 48.1 µM (inactive) | GI50 (UACC-257): 43 µM (inactive) | GI50 (UACC-62): 58.5 µM (inactive) | GI50 (UO-31): 36.8 µM (inactive)

Cc1ccc(C)c(COCCOCn2c(=O)[nH]c(=O)c3cc(Br)ccc32)c1
GI50 (786-0): 29.4 µM (inactive) | GI50 (A498): > 100 µM (inactive) | GI50 (A549): > 100 µM (inactive) | GI50 (ACHN): > 100 µM (inactive) | GI50 (CAKI-1): 81.1 µM (inactive) | GI50 (CCRF-CEM): > 100 µM (inactive) | GI50 (COLO 205): > 100 µM (inactive) | GI50 (DU-145): 90.8 µM (inactive) | GI50 (EKVX): > 100 µM (inactive) | GI50 (HCC 2998): > 100 µM (inactive) | GI50 (HCT-116): > 100 µM (inactive) | GI50 (HCT-15): > 100 µM | GI50 (HL-60): > 100 µM (inactive) | GI50 (HOP-62): 41.7 µM (inactive) | GI50 (HOP-92): > 100 µM (inactive) | GI50 (HT-29): 98.2 µM (inactive) | GI50 (IGROV-1): 60.3 µM (inactive) | GI50 (K562): > 100 µM (inactive) | GI50 (KM12): > 100 µM (inactive) | GI50 (LOX IMVI): > 100 µM (inactive) | GI50 (M14): > 100 µM (inactive) | GI50 (MCF7): > 100 µM (inactive) | GI50 (MDA-MB-231): 66.4 µM (inactive) | GI50 (MDA-MB-435): > 100 µM (inactive) | GI50 (MDA-N): > 100 µM (inactive) | GI50 (MOLT-4): > 100 µM (inactive) | GI50 (Malme-3M): 71.8 µM (inactive) | GI50 (NCI-H226): > 100 µM (inactive) | GI50 (NCI-H23): > 100 µM (inactive) | GI50 (NCI-H460): > 100 µM (inactive) | GI50 (NCI-H522): 62.4 µM (inactive) | GI50 (NCI/ADR-RES): > 100 µM (inactive) | GI50 (OVCAR-3): > 100 µM (inactive) | GI50 (OVCAR-4): 47.8 µM (inactive) | GI50 (OVCAR-5): > 100 µM (inactive) | GI50 (OVCAR-8): 94.2 µM (inactive) | GI50 (PC-3): > 100 µM (inactive) | GI50 (RXF 393): > 100 µM (inactive) | GI50 (SF-268): 52.6 µM (inactive) | GI50 (SF-295): > 100 µM (inactive) | GI50 (SF-539): 99.3 µM (inactive) | GI50 (SK-MEL-28): 39.5 µM (inactive) | GI50 (SK-MEL-2): > 100 µM (inactive) | GI50 (SK-OV-3): > 100 µM (inactive) | GI50 (SN12C): > 100 µM (inactive) | GI50 (SNB-19): > 100 µM (inactive) | GI50 (SNB-75): 46.6 µM (inactive) | GI50 (SR): > 100 µM (inactive) | GI50 (SW-620): > 100 µM (inactive) | GI50 (T47D): 74.6 µM (inactive) | GI50 (TK-10): 55.3 µM (inactive) | GI50 (U-251): > 100 µM (inactive) | GI50 (UACC-257): 72.1 µM (inactive) | GI50 (UACC-62): 53 µM (inactive) | GI50 (UO-31): > 100 µM (inactive)

Reference: ChEMBL document CHEMBL1201862, “PubChem BioAssay data set” (2004)
